Data taken from ChEMBL document CHEMBL4152250, “Antibacterial and anti-TB tat-peptidomimetics with improved efficacy and half-life” (Eur J Med Chem, 2018).
pIC50: −log10 of the molar value. Converted amounts (≈) assume the structure as drawn. The source made the active and inactive calls. No cut-off for these calls is given here. Numbered stars: 1 amine (or outer) side, 2 acyl side, 3 side chain; on linkers, the order of the positions; unused ones are H or OH. Square brackets hold non-standard residues; d marks the D form. Peptide text beside a SMILES is read from it. Pro(N-(CH2)3Gua,cis-4-NH-) = N=C(N)NCCCN1C[C@@H](N[*:1])C[C@H]1C(=O)[*:2]; Pro(cis-4-guanidino) = NC(N)=N[C@@H]1CN[C@H](C(=O)O)C1; βAla = NCCC(=O)O

Key:
[1] = system: Bacillus subtilis; test: Antibacterial activity against Bacillus subtilis NCIM 2079 after 12 hrs by serial dilution method; assay type: functional, organism-based; settings: NCIM 2079, 12 h
[2] = system: Mycobacterium tuberculosis; test: Antitubercular activity against active stage of Mycobacterium tuberculosis H37Ra ATCC 25177 after 8 days by XRMA; assay type: functional, organism-based; settings: H37Ra ATCC 25177, 192 h
[3] = system: Mycobacterium tuberculosis; test: Antitubercular activity against dormant stage of Mycobacterium tuberculosis H37Ra ATCC 25177 after 12 days by XRMA; assay type: functional, organism-based; settings: H37Ra ATCC 25177, 288 h
[4] = system: Staphylococcus aureus; test: Disruption of cell wall in Staphylococcus aureus NCIM 2010 at MIC after 60 mins by transmission electron microscopic method; assay type: functional, organism-based
[5] = system: Staphylococcus aureus; test: Antibacterial activity against Staphylococcus aureus NCIM 2010 after 12 hrs by serial dilution method; assay type: functional, organism-based; settings: NCIM 2010, 12 h
[6] = system: Staphylococcus epidermidis; test: Antibacterial activity against Staphylococcus epidermidis NCIM 5270 after 12 hrs by serial dilution method; assay type: functional, organism-based; settings: NCIM 5270, 12 h
[7] = system: Escherichia coli; test: Disruption of cell wall in Escherichia coli NCIM 2688 at MIC after 60 mins by transmission electron microscopic method; assay type: functional, organism-based
[8] = system: Escherichia coli; test: Antibacterial activity against Escherichia coli NCIM 2688 after 8 hrs by serial dilution method; assay type: functional, organism-based; settings: NCIM 2688, 8 h
[9] = system: Enterobacter sp.; test: Antibacterial activity against Enterobacter sp. NCIM 5392 after 8 hrs by serial dilution method; assay type: functional, organism-based; settings: NCIM 5392, 8 h
[10] = Cytotoxicity against human HeLa cells assessed as cell viability at 1 to 10 uM after 24 hrs by MTT assay relative to control; assay type: cell-based; settings: read-out: Activity
[11] = system: Pseudomonas aeruginosa; test: Antibacterial activity against Pseudomonas aeruginosa NCIM 2036 after 8 hrs by serial dilution method; assay type: functional, organism-based; settings: NCIM 2036, 8 h

SMILES	pIC50 [1]	MIC [1]	pIC50 [2]	MIC [2]	pIC50 [3]	MIC [3]	Activity [4]	pIC50 [5]	MIC [5]	pIC50 [6]	MIC [6]	Activity [7]	pIC50 [8]	MIC [8]	pIC50 [9]	MIC [9]	viability at 24 h, up to 10 µM [10]	pIC50 [11]	MIC [11]
CC(=O)N[C@@H](Cc1ccccc1)C(=O)NCC(=O)N[C@@H](CCCNC(=N)N)C(=O)N[C@@H](CCCCN)C(=O)N[C@@H](CCCCN)C(=O)N[C@@H](CCCNC(=N)N)C(=O)N[C@@H](CCCNC(=N)N)C(=O)N[C@@H](CCC(N)=O)C(=O)N[C@@H](CCCNC(=N)N)C(=O)N[C@@H](CCCNC(=N)N)C(=O)N[C@H]1C[C@@H](C(=O)NCCC(N)=O)N(CCCNC(=N)N)C1 (Ac-FGRKKRRQRR[Pro(N-(CH2)3Gua,cis-4-NH-)][βAla]-NH2)	8.03	3.56 µM (≈ 6.09 µg/mL)	5.62	27.6 µM (≈ 47.2 µg/mL)	5.71	18.4 µM (≈ 31.5 µg/mL)	Active	8.15	8.47 µM (≈ 14.5 µg/mL)	8.00	4.92 µM (≈ 8.42 µg/mL)	Active	8.10	5.71 µM (≈ 9.77 µg/mL)	7.89	18.9 µM (≈ 32.3 µg/mL)	≥ 80%	8.03	3.35 µM (≈ 5.73 µg/mL)
CC(=O)N[C@@H](Cc1ccccc1)C(=O)NCC(=O)N[C@@H](CCCNC(=N)N)C(=O)N[C@@H](CCCCN)C(=O)N[C@@H](CCCCN)C(=O)N[C@@H](CCCNC(=N)N)C(=O)N[C@@H](CCCNC(=N)N)C(=O)N[C@@H](CCC(N)=O)C(=O)N[C@@H](CCCNC(=N)N)C(=O)N[C@@H](CCCNC(=N)N)C(=O)N1C[C@@H](NC(=N)N)C[C@H]1C(=O)NCCC(N)=O (Ac-FGRKKRRQRR[Pro(cis-4-guanidino)][βAla]-NH2)	6.83	7.96 µM (≈ 13.2 µg/mL)	5.01	32.1 µM (≈ 53.1 µg/mL)	6.04	23.9 µM (≈ 39.5 µg/mL)	–	7.07	10.9 µM (≈ 18.1 µg/mL)	–	–	–	7.04	6.73 µM (≈ 11.1 µg/mL)	–	–	≥ 80%	7.15	10.3 µM (≈ 17 µg/mL)
CC(=O)N[C@@H](Cc1ccccc1)C(=O)NCC(=O)N[C@@H](CCCNC(=N)N)C(=O)N[C@@H](CCCCN)C(=O)N[C@@H](CCCCN)C(=O)N[C@H]1C[C@@H](C(=O)N[C@@H](CCCNC(=N)N)C(=O)N[C@@H](CCC(N)=O)C(=O)N[C@@H](CCCNC(=N)N)C(=O)N[C@@H](CCCNC(=N)N)C(=O)N[C@@H](CCCNC(=N)N)C(=O)NCCC(N)=O)N(CCCNC(=N)N)C1 (Ac-FGRKK[Pro(N-(CH2)3Gua,cis-4-NH-)]RQRRR[βAla]-NH2)	7.35	14.1 µM (≈ 24.1 µg/mL)	5.52	20.1 µM (≈ 34.4 µg/mL)	5.89	13.8 µM (≈ 23.6 µg/mL)	–	7.64	5.25 µM (≈ 8.98 µg/mL)	7.85	8.95 µM (≈ 15.3 µg/mL)	–	7.74	7.25 µM (≈ 12.4 µg/mL)	7.85	4.7 µM (≈ 8.04 µg/mL)	≥ 80%	8.30	2.67 µM (≈ 4.57 µg/mL)
CC(=O)N[C@@H](Cc1ccccc1)C(=O)NCC(=O)N[C@@H](CCCNC(=N)N)C(=O)N[C@@H](CCCCN)C(=O)N[C@@H](CCCCN)C(=O)N1C[C@@H](NC(=N)N)C[C@H]1C(=O)N[C@@H](CCCNC(=N)N)C(=O)N[C@@H](CCC(N)=O)C(=O)N[C@@H](CCCNC(=N)N)C(=O)N[C@@H](CCCNC(=N)N)C(=O)N[C@@H](CCCNC(=N)N)C(=O)NCCC(N)=O (Ac-FGRKK[Pro(cis-4-guanidino)]RQRRR[βAla]-NH2)	6.46	29.9 µM (≈ 49.4 µg/mL)	5.35	28.6 µM (≈ 47.3 µg/mL)	5.60	33.9 µM (≈ 56.1 µg/mL)	–	6.98	8.65 µM (≈ 14.3 µg/mL)	–	–	–	7.04	13.5 µM (≈ 22.3 µg/mL)	–	–	≥ 80%	7.33	6.53 µM (≈ 10.8 µg/mL)
CC(=O)N[C@@H](Cc1ccccc1)C(=O)NCC(=O)N[C@H]1C[C@@H](C(=O)N[C@@H](CCCCN)C(=O)N[C@@H](CCCCN)C(=O)N[C@@H](CCCNC(=N)N)C(=O)N[C@H]2C[C@@H](C(=O)N[C@@H](CCC(N)=O)C(=O)N[C@@H](CCCNC(=N)N)C(=O)N[C@@H](CCCNC(=N)N)C(=O)N[C@H]3C[C@@H](C(=O)NCCC(N)=O)N(CCCNC(=N)N)C3)N(CCCNC(=N)N)C2)N(CCCNC(=N)N)C1 (Ac-FG[Pro(N-(CH2)3Gua,cis-4-NH-)]KKR[Pro(N-(CH2)3Gua,cis-4-NH-)]QRR[Pro(N-(CH2)3Gua,cis-4-NH-)][βAla]-NH2)	7.98	2.81 µM (≈ 5.12 µg/mL)	5.08	26.1 µM (≈ 47.5 µg/mL)	5.66	22.8 µM (≈ 41.5 µg/mL)	–	7.98	9.05 µM (≈ 16.5 µg/mL)	8.19	9.44 µM (≈ 17.2 µg/mL)	–	7.74	7.58 µM (≈ 13.8 µg/mL)	7.62	8.01 µM (≈ 14.6 µg/mL)	≥ 80%	8.01	1.82 µM (≈ 3.31 µg/mL)
CC(=O)N[C@@H](Cc1ccccc1)C(=O)NCC(=O)N1C[C@@H](NC(=N)N)C[C@H]1C(=O)N[C@@H](CCCCN)C(=O)N[C@@H](CCCCN)C(=O)N[C@@H](CCCNC(=N)N)C(=O)N1C[C@@H](NC(=N)N)C[C@H]1C(=O)N[C@@H](CCC(N)=O)C(=O)N[C@@H](CCCNC(=N)N)C(=O)N[C@@H](CCCNC(=N)N)C(=O)N1C[C@@H](NC(=N)N)C[C@H]1C(=O)NCCC(N)=O (Ac-FG[Pro(cis-4-guanidino)]KKR[Pro(cis-4-guanidino)]QRR[Pro(cis-4-guanidino)][βAla]-NH2)	6.87	13.2 µM (≈ 21.8 µg/mL)	4.97	36.3 µM (≈ 59.9 µg/mL)	6.30	21.1 µM (≈ 34.8 µg/mL)	–	6.64	20.5 µM (≈ 33.9 µg/mL)	–	–	–	6.98	11.8 µM (≈ 19.5 µg/mL)	–	–	≥ 80%	7.04	12.6 µM (≈ 20.8 µg/mL)
